Tested on: MV-4-11 cells
Assay: Gene expression microarray analysis (Affymetrix PrimeView) and GSEA
Format: cell-based, human
Set-up: RFU PODN (11730768_x_at) / Fold change /veh PODN (11730768_x_at) / RFU LINC00158 (11744669_a_at) / Fold change /veh LINC00158 (11744669_a_at) / RFU DUSP10 (11751237_a_at) / Fold change /veh DUSP10 (11751237_a_at) / RFU ID3 (11757404_x_at) / Fold change /veh ID3 (11757404_x_at) / RFU PLEKHG5 (11737974_s_at) / Fold change /veh PLEKHG5 (11737974_s_at) / RFU LRRC4B (11730491_at) / Fold change /veh LRRC4B (11730491_at) / RFU GIMAP4 (11747438_a_at) / Fold change /veh GIMAP4 (11747438_a_at) / RFU KRT8 (11758183_x_at) / Fold change /veh KRT8 (11758183_x_at) / RFU CNN1 (11734310_a_at) / Fold change /veh CNN1 (11734310_a_at) / RFU VPS37D (11726825_at) / Fold change /veh VPS37D (11726825_at) / RFU C10orf10 (11716522_x_at) / Fold change /veh C10orf10 (11716522_x_at) / RFU KIR2DL2 /// KIR2DL4 /// KIR2DL5A /// KIR2DL5B /// KIR2DS1 /// KIR2DS2 /// KIR2DS3 /// KIR2DS4 /// KIR3DL3 /// KIR3DL3 /// KIR3DS1 (11738374_at) / Fold change /veh KIR2DL2 /// KIR2DL4 /// KIR2DL5A /// KIR2DL5B /// KIR2DS1 /// KIR2DS2 /// KIR2DS3 /// KIR2DS4 /// KIR3DL3 /// KIR3DL3 /// KIR3DS1 (11738374_at) / RFU C1QL1 (11718748_at) / Fold change /veh C1QL1 (11718748_at) / RFU TMPRSS4 (11747572_a_at) / Fold change /veh TMPRSS4 (11747572_a_at) / RFU HAMP (11756126_x_at) / Fold change /veh HAMP (11756126_x_at) / RFU RNFT2 (11725882_a_at) / Fold change /veh RNFT2 (11725882_a_at) / RFU NR4A2 (11747474_a_at) / Fold change /veh NR4A2 (11747474_a_at) / RFU ABCC12 (11746883_a_at) / Fold change /veh ABCC12 (11746883_a_at) / RFU TMEM136 (11760407_x_at) / Fold change /veh TMEM136 (11760407_x_at) / RFU CLDN22 /// WWC2 (11732394_at) / Fold change /veh CLDN22 /// WWC2 (11732394_at) / RFU HLA-DPB1 (11760878_x_at) / Fold change /veh HLA-DPB1 (11760878_x_at) / RFU SPINT1 (11716480_a_at) / Fold change /veh SPINT1 (11716480_a_at) / RFU GAP43 (11754022_s_at) / Fold change /veh GAP43 (11754022_s_at) / RFU A4GNT (11735810_at) / Fold change /veh A4GNT (11735810_at) / RFU PRB3 (11715151_x_at) / Fold change /veh PRB3 (11715151_x_at) / RFU TUBB4B (11761932_at) / Fold change /veh TUBB4B (11761932_at) / RFU CAPN14 (11732068_a_at) / Fold change /veh CAPN14 (11732068_a_at) / RFU TMCC2 (11721928_a_at) / Fold change /veh TMCC2 (11721928_a_at) / RFU IRGQ (11745062_a_at) / Fold change /veh IRGQ (11745062_a_at) / RFU FAM174B (11720279_a_at) / Fold change /veh FAM174B (11720279_a_at) / RFU TMPRSS4 (11748680_a_at) / Fold change /veh TMPRSS4 (11748680_a_at) / RFU FAM212B (11763350_a_at) / Fold change /veh FAM212B (11763350_a_at) / RFU PLEKHG5 (11743358_a_at) / Fold change /veh PLEKHG5 (11743358_a_at) / RFU ZSCAN30 (11745921_a_at) / Fold change /veh ZSCAN30 (11745921_a_at) / RFU CMKLR1 (11741424_a_at) / Fold change /veh CMKLR1 (11741424_a_at) / RFU LOC101060620 /// MAPK8IP1 (11723275_at) / Fold change /veh LOC101060620 /// MAPK8IP1 (11723275_at) / RFU SPTSSB (11747773_x_at) / Fold change /veh SPTSSB (11747773_x_at) / RFU PRSS12 (11739890_at) / Fold change /veh PRSS12 (11739890_at) / RFU BIN1 (11741810_x_at) / Fold change /veh BIN1 (11741810_x_at) / RFU WNT11 (11732464_a_at) / Fold change /veh WNT11 (11732464_a_at) / RFU C10orf10 (11716521_a_at) / Fold change /veh C10orf10 (11716521_a_at) / RFU C5orf56 (11738089_at) / Fold change /veh C5orf56 (11738089_at) / RFU CYB561 (11721691_x_at) / Fold change /veh CYB561 (11721691_x_at) / RFU ANKRD19P (11752326_a_at) / Fold change /veh ANKRD19P (11752326_a_at) / RFU OR2T12 /// OR2T33 /// OR2T8 (11738714_s_at) / Fold change /veh OR2T12 /// OR2T33 /// OR2T8 (11738714_s_at) / RFU VCAN (11748164_a_at) / Fold change /veh VCAN (11748164_a_at) / RFU JSRP1 (11732532_at) / Fold change /veh JSRP1 (11732532_at) / RFU KRTAP10-11 (11738290_x_at) / Fold change /veh KRTAP10-11 (11738290_x_at) / RFU MYO3A (11730013_a_at) / Fold change /veh MYO3A (11730013_a_at) / RFU EBF3 (11725865_a_at) / Fold change /veh EBF3 (11725865_a_at) / RFU CAMK2N1 (11719241_x_at) / Fold change /veh CAMK2N1 (11719241_x_at) / RFU C5orf56 (11738088_a_at) / Fold change /veh C5orf56 (11738088_a_at) / RFU OLFML3 (11715873_a_at) / Fold change /veh OLFML3 (11715873_a_at) / RFU LOC100653217 /// NTM (11731650_a_at) / Fold change /veh LOC100653217 /// NTM (11731650_a_at) / RFU MAPK11 (11762145_a_at) / Fold change /veh MAPK11 (11762145_a_at) / RFU FIZ1 (11724087_x_at) / Fold change /veh FIZ1 (11724087_x_at) / RFU OASL (11726364_x_at) / Fold change /veh OASL (11726364_x_at) / RFU SOX15 (11748057_x_at) / Fold change /veh SOX15 (11748057_x_at) / RFU CD79A (11719716_a_at) / Fold change /veh CD79A (11719716_a_at) / RFU HIST1H1D (11736915_at) / Fold change /veh HIST1H1D (11736915_at) / RFU CASKIN2 (11723855_a_at) / Fold change /veh CASKIN2 (11723855_a_at) / RFU LOC730098 (11760151_x_at) / Fold change /veh LOC730098 (11760151_x_at) / RFU OR4N2 (11742367_at) / Fold change /veh OR4N2 (11742367_at) / RFU PRRT2 (11749266_a_at) / Fold change /veh PRRT2 (11749266_a_at) / RFU SNX32 (11753110_a_at) / Fold change /veh SNX32 (11753110_a_at) / RFU CDHR5 (11726645_a_at) / Fold change /veh CDHR5 (11726645_a_at) / RFU RCAN1 (11760418_a_at) / Fold change /veh RCAN1 (11760418_a_at) / RFU FAM167A (11723789_a_at) / Fold change /veh FAM167A (11723789_a_at) / RFU FAM26E (11764081_at) / Fold change /veh FAM26E (11764081_at) / RFU ISYNA1 (11749810_s_at) / Fold change /veh ISYNA1 (11749810_s_at) / RFU ACY1 (11761880_at) / Fold change /veh ACY1 (11761880_at) / RFU 11764098_at / Fold change /veh 11764098_at / RFU SAMD14 (11745864_x_at) / Fold change /veh SAMD14 (11745864_x_at) / RFU NPB (11741838_a_at) / Fold change /veh NPB (11741838_a_at) / RFU TMPRSS6 (11731388_a_at) / Fold change /veh TMPRSS6 (11731388_a_at) / RFU KRTAP10-2 (11738614_at) / Fold change /veh KRTAP10-2 (11738614_at) / RFU ARHGAP8 /// PRR5-ARHGAP8 (11727945_x_at) / Fold change /veh ARHGAP8 /// PRR5-ARHGAP8 (11727945_x_at) / RFU KRTAP5-7 /// NADSYN1 (11734609_at) / Fold change /veh KRTAP5-7 /// NADSYN1 (11734609_at) / RFU RASL12 (11751679_a_at) / Fold change /veh RASL12 (11751679_a_at) / RFU CDKN2B (11736163_a_at) / Fold change /veh CDKN2B (11736163_a_at) / RFU PRF1 (11729649_at) / Fold change /veh PRF1 (11729649_at) / RFU, ZNF638 /// ZNF638-IT1 / Fold change vs veh, ZNF638 /// ZNF638-IT1 / RFU, PANK3 / Fold change vs veh, PANK3 / RFU, SH3YL1 / Fold change vs veh, SH3YL1 / RFU, ZEB2 / Fold change vs veh, ZEB2 / RFU, NRIP1 / Fold change vs veh, NRIP1 / RFU, PTTG1IP / Fold change vs veh, PTTG1IP / RFU, CAPN2 / Fold change vs veh, CAPN2 / RFU, MED14 / Fold change vs veh, MED14 / RFU, SNORA58 / Fold change vs veh, SNORA58 / RFU, C1orf63 / Fold change vs veh, C1orf63 / RFU, LRRFIP1 / Fold change vs veh, LRRFIP1 / RFU, NDUFAF7 / Fold change vs veh, NDUFAF7 / RFU, SLC12A2 / Fold change vs veh, SLC12A2 / RFU, IBTK / Fold change vs veh, IBTK / RFU, ESF1 / Fold change vs veh, ESF1 / Fold change vs veh, TMEM50B / RFU, TAOK1 / Fold change vs veh, TAOK1 / RFU, ACBD3 / Fold change vs veh, ACBD3 / RFU, TMA16 / Fold change vs veh, TMA16 / RFU, RWDD3 / Fold change vs veh, RWDD3 / RFU, BCAT1 / Fold change vs veh, BCAT1 / RFU, EDEM3 / Fold change vs veh, EDEM3 / RFU, TMEM33 / Fold change vs veh, TMEM33 / RFU, WDR75 / Fold change vs veh, WDR75 / RFU, AHCTF1 / Fold change vs veh, AHCTF1 / RFU, TFRC / Fold change vs veh, TFRC / RFU, ZDHHC17 / Fold change vs veh, ZDHHC17 / RFU, NOM1 / Fold change vs veh, NOM1 / RFU, ARL8B / Fold change vs veh, ARL8B / RFU, ZBTB11 / Fold change vs veh, ZBTB11 / RFU, TAMM41 / Fold change vs veh, TAMM41 / RFU, KIAA1704 /// LOC100996395 / Fold change vs veh, KIAA1704 /// LOC100996395 / RFU, ING1 / Fold change vs veh, ING1 / RFU, TRMT61B / Fold change vs veh, TRMT61B / RFU, FUBP3 / Fold change vs veh, FUBP3 / RFU, TP53 / Fold change vs veh, TP53 / RFU, TNKS2 / Fold change vs veh, TNKS2 / RFU, ZFP14 / Fold change vs veh, ZFP14 / RFU, ACTR2 / Fold change vs veh, ACTR2 / RFU, PPP3R1 / Fold change vs veh, PPP3R1 / RFU, PIK3R1 / Fold change vs veh, PIK3R1 / RFU, HNRNPA1 / Fold change vs veh, HNRNPA1 / RFU, RNF170 / Fold change vs veh, RNF170 / RFU, ZNF28 / Fold change vs veh, ZNF28 / RFU, RNGTT / Fold change vs veh, RNGTT / RFU, OGT / Fold change vs veh, OGT / RFU, BRD1 / Fold change vs veh, BRD1 / RFU, MARS / Fold change vs veh, MARS / RFU, ZNF655 / Fold change vs veh, ZNF655 / RFU, FAHD1 / Fold change vs veh, FAHD1 / RFU, BDP1 / Fold change vs veh, BDP1 / RFU, LRRCC1 / Fold change vs veh, LRRCC1 / RFU, ARID1A / Fold change vs veh, ARID1A / RFU, ZNF146 / Fold change vs veh, ZNF146 / RFU, ZNF330 / Fold change vs veh, ZNF330 / RFU, GPN3 / Fold change vs veh, GPN3 / RFU, C9orf123 / Fold change vs veh, C9orf123 / RFU, N4BP2L2 / Fold change vs veh, N4BP2L2 / RFU, ARFIP1 / Fold change vs veh, ARFIP1 / RFU, FAM179B / Fold change vs veh, FAM179B / RFU, BCL10 / Fold change vs veh, BCL10 / RFU, UHRF1BP1L / Fold change vs veh, UHRF1BP1L / RFU, BET1 / Fold change vs veh, BET1 / RFU, CNOT2 / Fold change vs veh, CNOT2 / RFU, ZNF268 / Fold change vs veh, ZNF268 / Fold change vs veh, ZNF507 / RFU, DGCR2 / Fold change vs veh, DGCR2 / RFU, WDSUB1 / Fold change vs veh, WDSUB1 / Fold change vs veh, HSP90B1 /// MIR3652 / RFU, ADSS / Fold change vs veh, ADSS / RFU, GK / Fold change vs veh, GK / RFU, ZNF148 / Fold change vs veh, ZNF148 / RFU, TAF9 / Fold change vs veh, TAF9 / RFU, SLC1A5 / Fold change vs veh, SLC1A5 / RFU, SLMO2 / Fold change vs veh, SLMO2 / RFU, ABCC4 / Fold change vs veh, ABCC4 / RFU, LOC101060439 /// RAP1B / Fold change vs veh, LOC101060439 /// RAP1B / RFU, RFX7 / Fold change vs veh, RFX7 / RFU, GTPBP10 / Fold change vs veh, GTPBP10 / RFU, CNEP1R1 / Fold change vs veh, CNEP1R1 / RFU, BIVM-ERCC5 /// ERCC5 / Fold change vs veh, BIVM-ERCC5 /// ERCC5 / RFU, ILF3 / Fold change vs veh, ILF3 / RFU 11762660_at / Fold change /veh 11762660_at / RFU VCAN (11757783_s_at) / Fold change /veh VCAN (11757783_s_at) / RFU DDX43 (11728927_at) / Fold change /veh DDX43 (11728927_at) / RFU KRT8 (11758188_x_at) / Fold change /veh KRT8 (11758188_x_at) / RFU NKD1 (11759106_at) / Fold change /veh NKD1 (11759106_at) / RFU SRD5A1 (11742802_a_at) / Fold change /veh SRD5A1 (11742802_a_at) / RFU TPSAB1 /// TPSB2 (11721975_s_at) / Fold change /veh TPSAB1 /// TPSB2 (11721975_s_at) / RFU GSTM3 (11746129_a_at) / Fold change /veh GSTM3 (11746129_a_at) / RFU IL23R (11737362_x_at) / Fold change /veh IL23R (11737362_x_at) / RFU TMEM51 (11727254_a_at) / Fold change /veh TMEM51 (11727254_a_at) / RFU PIWIL2 (11732686_x_at) / Fold change /veh PIWIL2 (11732686_x_at) / RFU ORM1 (11744905_x_at) / Fold change /veh ORM1 (11744905_x_at) / RFU CCDC152 (11743942_at) / Fold change /veh CCDC152 (11743942_at) / RFU ECM1 (11717891_a_at) / Fold change /veh ECM1 (11717891_a_at) / RFU IL23R (11748794_a_at) / Fold change /veh IL23R (11748794_a_at) / RFU TNFAIP8L3 (11732012_x_at) / Fold change /veh TNFAIP8L3 (11732012_x_at) / RFU MBOAT4 (11741988_at) / Fold change /veh MBOAT4 (11741988_at) / RFU 11764193_at / Fold change /veh 11764193_at / RFU TMEM53 (11763286_at) / Fold change /veh TMEM53 (11763286_at) / RFU MAGEB2 (11727129_at) / Fold change /veh MAGEB2 (11727129_at) / RFU TMEM200A (11744735_a_at) / Fold change /veh TMEM200A (11744735_a_at) / RFU CCDC152 (11751479_a_at) / Fold change /veh CCDC152 (11751479_a_at) / RFU FAM211A (11726209_a_at) / Fold change /veh FAM211A (11726209_a_at) / RFU RGS16 (11746705_a_at) / Fold change /veh RGS16 (11746705_a_at) / RFU VCAN (11755009_s_at) / Fold change /veh VCAN (11755009_s_at) / RFU RHOB (11743442_s_at) / Fold change /veh RHOB (11743442_s_at) / RFU RGS16 (11720943_a_at) / Fold change /veh RGS16 (11720943_a_at) / RFU RGS16 (11720944_at) / Fold change /veh RGS16 (11720944_at) / RFU, VPS4B / Fold change vs veh, VPS4B / RFU, CREB1 / Fold change vs veh, CREB1 / RFU, DNAJC13 / Fold change vs veh, DNAJC13 / RFU, GNAQ / Fold change vs veh, GNAQ / RFU, CDK5R1 / Fold change vs veh, CDK5R1 / RFU, ZRANB3 / Fold change vs veh, ZRANB3 / RFU, CUL4A / Fold change vs veh, CUL4A / RFU, CCNY / Fold change vs veh, CCNY / RFU, UFL1 / Fold change vs veh, UFL1 / RFU, COG3 / Fold change vs veh, COG3 / RFU, DIAPH2 / Fold change vs veh, DIAPH2 / RFU, SKA2 / Fold change vs veh, SKA2 / RFU, AFF3 / Fold change vs veh, AFF3 / RFU, LMF1 / Fold change vs veh, LMF1 / RFU, IPO11 / Fold change vs veh, IPO11 / RFU, DFFB / Fold change vs veh, DFFB / RFU, FOXP1 / Fold change vs veh, FOXP1 / RFU, CARD8 / Fold change vs veh, CARD8 / RFU, STRN3 / Fold change vs veh, STRN3 / RFU, ADK / Fold change vs veh, ADK / RFU, RASSF2 / Fold change vs veh, RASSF2 / RFU, WIPF1 / Fold change vs veh, WIPF1 / RFU, LARP1B / Fold change vs veh, LARP1B / RFU, RASA1 / Fold change vs veh, RASA1 / RFU, RB1 / Fold change vs veh, RB1 / RFU, PPFIA1 / Fold change vs veh, PPFIA1 / RFU, MAT2A / Fold change vs veh, MAT2A / RFU, CCT5 / Fold change vs veh, CCT5 / RFU, WDR92 / Fold change vs veh, WDR92 / RFU, CUX1 / Fold change vs veh, CUX1 / RFU, TTC7A / Fold change vs veh, TTC7A / RFU, TMEM135 / Fold change vs veh, TMEM135 / RFU, DEPTOR / Fold change vs veh, DEPTOR / RFU, CPM / Fold change vs veh, CPM / RFU, DNAJB6 / Fold change vs veh, DNAJB6 / RFU, CACNA2D3 / Fold change vs veh, CACNA2D3 / RFU, DTX4 / Fold change vs veh, DTX4 / RFU, TFCP2 / Fold change vs veh, TFCP2 / RFU, GMCL1 /// GMCL1P1 / Fold change vs veh, GMCL1 /// GMCL1P1 / RFU, AEBP2 / Fold change vs veh, AEBP2 / RFU, SNHG1 /// SNORD22 /// SNORD25 /// SNORD26 /// SNORD27 /// SNORD28 /// SNORD29 /// SNORD31 / Fold change vs veh, SNHG1 /// SNORD22 /// SNORD25 /// SNORD26 /// SNORD27 /// SNORD28 /// SNORD29 /// SNORD31 / Fold change (Aza/veh), C12orf56 (ProbeSet 11735607_a_at) / Fold change (ACY-1035/veh), C12orf56 (ProbeSet 11735607_a_at) / Fold change (Aza/veh), FGFR1OP (ProbeSet 11751329_s_at) / Fold change (ACY-1035/veh), FGFR1OP (ProbeSet 11751329_s_at) / Fold change (Aza/veh), VPS36 (ProbeSet 11739960_a_at) / Fold change (ACY-1035/veh), VPS36 (ProbeSet 11739960_a_at) / RFU SYPL1 (11715823_x_at) / Fold change /veh SYPL1 (11715823_x_at) / RFU IGFBP7 (11715501_s_at) / Fold change /veh IGFBP7 (11715501_s_at) / RFU REEP3 (11722064_at) / Fold change /veh REEP3 (11722064_at) / RFU IGLL1 (11728026_x_at) / Fold change /veh IGLL1 (11728026_x_at): dose or concentration left out as unconfirmed
Conditions: MV-4-11 cells, 48 hours

Nc1ncn([C@@H]2O[C@H](CO)[C@@H](O)[C@H]2O)c(=O)n1 [azacitidine]
RFU KIR2DL2 /// KIR2DL4 /// KIR2DL5A /// KIR2DL5B /// KIR2DS1 /// KIR2DS2 /// KIR2DS3 /// KIR2DS4 /// KIR3DL3 /// KIR3DL3 /// KIR3DS1 (11738374_at): 10.60 RFU

Source: article PMC5218480 (PLoS ONE, 2017)
